# From US20260284076A1, “TESTOSTERONE AND DIFLUOROMETHYLORNITHINE COMBINATION THERAPY FOR PROSTATE CANCER” (The Johns Hopkins University, priority 2023, published 2026)
# Read-outs that look alike come from different tables or passages of the source.
# Assays:
# [1] = tested on: CRPC post docetaxel; conditions: post-docetaxel setting; cited from earlier work
# [2] = tested on: CRPC; conditions: post-abiraterone, pre-chemotherapy setting; cited from earlier work
# [3] = tested on: asymptomatic patients with CRPC progressing on Abi; test: TRANSFORMER randomized Phase II study, BAT vs. Enza with crossover; format: in vivo, human
# Procedure: The TRANSFORMER study (NCT02286921) was a DOD-sponsored randomized Phase II study designed to compare the efficacy of BAT vs. Enza in asymptomatic patients with CRPC progressing on Abi, FIG. 19A (2). The study was conducted at 17 academic centers across the US. The study was coordinated by the Prostate Cancer Disease Group clinical research team at Johns Hopkins, who performed regulatory oversight, study/site monitoring, and data analyses. From 2015-2018, 195 patients underwent 1:1 randomization to either standard dose Enza (n=101) or BAT (n=94) at 400 mg IM every 28 days. The primary endpoint was clinical/radiographic PFS. At time of progression, patients were given the option to crossover to the alternate therapy. The trial was designed to show a 50% improvement in the primary endpoint for BAT vs. Enza. […] Objective response was 24.4% for BAT and 4.2% for Enza (p=0.067). Best PSA50 was 26.4% for BAT and 25.5% for Enza (p=0.697).
# At time of progression, 46 (49%) of patients on the Enza arm crossed over to receive BAT and 34 (33.7%) crossed over from BAT to receive Enza and were available for analysis. Remarkably, the PSAso response for patients who received Enza after BAT was 72.7% compared to 25.5% for patients receiving Enza immediately after Abi, FIG. 19D. Objective response in the Enza post-BAT patients was 28.6% compared to 4.2% post-Abi, FIG. 19B. […] The logical extension of these findings and the hypothesis of this proposal is that patients are likely to respond again to further repeat cycles of BAT and Enza, but this treatment strategy has yet to be explored in the clinical trial setting.
# [4] = tested on: chronically castrated patients with rising PSA and CRPC; test: Pilot study of BAT with oral etoposide, then second line therapy post-BAT; format: in vivo, human
# Description: Based on the preclinical results and potential mechanisms for growth inhibition that include androgen-induced double strand breaks and stabilization of AR preventing relicensing, we have conducted a pilot study evaluating the efficacy and safety of pharmacologic doses of testosterone to produce high dose T levels in conjunction with oral etoposide in chronically castrated patients with rising PSA and CRPC (37). Patients who had been continuously castrate for more than one year with minimal metastatic disease burden (≤5 total bone metastases and ≤10 total sites of metastases) and/or rising PSA were eligible. To achieve rapid cycling between high dose and near castrate serum T (i.e., BAT) patients received intramuscular injection of 400 mg testosterone cypionate every 28 days. For the first 3 cycles of therapy patients received BAT plus oral etoposide 100 mg po/day days 1-14 of a 28-day cycle. After 3 cycles PSA response and objective response were assessed. Those patients with a PSA that was declining from peak levels and no objective evidence of disease progression or worsening pain were continued on therapy. Given the toxicity associated with etoposide and the lack of clinical response in an earlier trial (38), patients who responded after 3 cycles of testosterone plus etoposide were continued on testosterone alone based on protocol amendment.
# [5] = tested on: human T lymphocytes; conditions: CD3/CD28-stimulated cells, 24 hours, 5 donors
# Procedure: Protein expression of ODC and AR by western blot of human T cells cultured for 24 hours with vehicle control (EtOH 0.1%), SPA, or enzalutamide (ENZA; 10 μM) in the presence of no stimulation or CD3- and CD28-stimulation with dynabeads. Vinculin is used a loading control. FIG. 22J. Quantification of protein expression of ODC by western blot as per (FIG. 22I), displaying data from independent experiments of 5 different donors with indicated sex. P values by unpaired 2-tailed t test;
# To assess whether AR regulates expression of polyamine synthesis enzymes in cells beyond prostate, we isolated human T lymphocytes from peripheral blood of 5 donors, treated unstimulated or CD3/CD28-stimulated cells with vehicle control, SPA, or the AR inhibitor enzalutamide for 24 hours, and measured ODC.
# [6] = tested on: patients with CRPC progressing on Enza (Cohort A) or Abi (Cohort B); format: in vivo, human
# Description: The RESTORE study (NCT02090114) was an NIH sponsored Phase II study designed to assess the safety and efficacy of BAT in patients (n=30 per cohort) with CRPC progressing on Enza (Cohort A) or Abi (Cohort B), FIG. 18A (34,39). The primary endpoint of the first part of the study was to assess PSA response to BAT. Secondary endpoints included objective response, safety, and quality of life. The second part of the study was to determine in BAT could re-sensitize patients to repeat exposure to second line therapy that patients were progressing on prior to receiving BAT. Thus, patients progressing on Enza were re-exposed to Enza after BAT and similarly for Abi. Both arms of this study met the primary endpoint. PSA50 response to BAT was 30% in patient's post-Enza and 18% post-Abi, FIG. 18B. […] Overall duration of response to BAT and duration of response to re-exposure was longer in the post-Enza vs. post-Abi cohort. The PSAso response to re-exposure to Enza was 71% vs. only 21% for patients re-exposed to Abi, FIG. 19B (7). A third cohort was later added (Cohort C) for patients progressing on ADT alone. Overall, 90 patients were treated on this study over a 4-year period (2014-2018).
# [7] = tested on: metastatic CRPC, pre-chemotherapy setting; conditions: cited from earlier work
# [8] = tested on: patients with CRPC; test: Plasma putrescine in patients treated with BAT (COMBAT trial); conditions: human, in vivo
# Description: Vinculin was used as a loading control. FIG. 2F, Polyamine synthesis pathway.
# [9] = tested on: patients with CRPC; test: BAT clinical studies, overall experience; format: in vivo, human
# Description: A major driver of castration resistance is the adaptive upregulation of AR activity, often through AR protein overexpression, to a sufficient level to allow for renewed growth. This marked overexpression of AR makes PCa cells once again vulnerable to hormone shock, achieved not through further androgen blockade, but through exposure to supraphysiologic levels of androgen (SPA). Based on extensive preclinical studies, we developed Bipolar Androgen Therapy (BAT), which involves cyclic administration of SPA as treatment for CRPC.
# Inhibition of signaling through the androgen receptor (AR) is the mainstay of treatment of advanced PCa. […] This phase of the disease is associated with poor prognosis and limited therapeutic options. The majority of PCas are addicted to signaling through AR and adaptively upregulate AR-activity, via mechanisms such as AR overexpression, to permit sustained AR signaling despite castration and AR inhibitors (1,2). Studies dating back nearly thirty years indicate that high expression of AR induced by prolonged castration becomes a vulnerability of CRPC cells in vitro and in mouse xenografts to supraphysiological androgen (SPA), which induces cell death and growth arrest in this context (3,4). On the basis of these studies, we developed an innovative treatment called Bipolar Androgen Therapy (BAT) for patients with CRPC, in which SPA is administered intermittently to result in cycling of serum testosterone from supraphysiological to near castrate levels. This rapid cycling is intended to reduce adaptation AR regulation associated with chronic exposure to high or low levels of testosterone, while simultaneously targeting the spectrum of AR expression present in heterogeneous CRPC tumors (5). We have now tested BAT in more than 350 patients with CRPC (6-10).
# [10] = tested on: MYC; test: MYC expression in metastatic tumor biopsies before and after BAT; format: in vivo, human; conditions: responding patients
# Description: FIG. 5A, FIG. 5B, FIG. 5C, FIG. 5D, and FIG. 5E show: FIG. 5A, MYC expression by IHC in a metastatic tumor biopsy from a patient before and after 3 months of BAT. FIG. 5B, Quantification of MYC protein expression from metastatic tumor biopsies from patients before and after 3 months of BAT color-coded by response (non-responder NR; responder R). […] Vinculin was used as a loading control. FIG. 5D, Principal component analysis of RNA and ATAC sequencing of LNCaP cells treated for 5 days with R1881 10 nM (SPA). […] Vinculin was used as a loading control;
structure (smiles),measurement,setting,value
"CNC(=O)c1ccc(N2C(=S)N(c3ccc(C#N)c(C(F)(F)F)c3)C(=O)C2(C)C)cc1F [Enzalutamide, 4-{3-[4-cyano-3-(trifluoromethyl)phenyl]-5,5dimethyl-4-oxo-2-sulfanylideneimidazolidin-1-yl}-2-fluoro-N-methylbenzamide]",improvement in survival,[1],approximately 5 months
same,median rPFS,[2],≤ 6 months
same,PSA50 response,"[3]; Enza after BAT (crossover), listed as Enza",72.7%
same,PSA50 response,"[3]; Enza after BAT (crossover), listed as enzalutamide",78%
same,Time to PSA progression,"[3]; Enza immediately post-Abi, without prior BAT",3.8 months
same,Objective response,[3]; Enza post-BAT,28.6%
same,Time to PSA progression,[3]; Enza post-BAT,10.9 months
same,overall survival,[3]; enzalutamide after prior BAT,37 months
same,overall survival,[3]; enzalutamide without prior BAT,29 months
same,PSA50 response,"[3]; initial treatment immediately after Abi, no prior crossover, listed as Enza",25.5%
same,PSA50 response,"[3]; initial treatment immediately after Abi, no prior crossover, listed as enzalutamide",25%
same,fold increase in time to PSA progression on Enza,[3]; post-BAT vs immediately post-Abi,~3 fold
same,clinical/radiographic PFS,[3]; randomized arms,5.72 m
same,Objective response,"[3]; randomized arms, post-Abi",4.2%
same,patients with >50% PSA decline on second line therapy,[4]; post-BAT,3/4
same,PSA decline upon re-challenge,"[4]; post-BAT, agent previously progressed on",53.2%
same,ODC protein,[5],decreased ODC in all donors
same,PSA50 response to re-exposure (re-challenge) post-BAT,[6]; re-exposed to agent progressed on before BAT,71%
same,"hazard ratio, overall survival vs placebo",[7]; 95% CI 0.60 to 0.84,0.71
same,median overall survival,"[7]; PREVAIL, enzalutamide group",32.4 months
same,>50% decline PSA (%),[7]; PREVAIL,78%
same,PSA PFS,[7]; PREVAIL,11.2
same,TIP (m),[7]; PREVAIL,20 m
"C[C@]12CC[C@H]3[C@@H](CCC4=CC(=O)CC[C@@]43C)[C@@H]1CC[C@@H]2OC(=O)CCC1CCCC1 [BAT, androst-4-en-3-one, 17-(3-cyclopentyl-1-oxopropoxy)-, (17ß)-]",plasma putrescine abundance,[8],increased
same,PSA50 response,[3]; BAT after Enza (crossover),22.2%
same,PSA50 response,"[3]; initial treatment immediately after Abi, no prior crossover",26.4%
same,clinical/radiographic PFS,[3]; randomized arms,5.62 m
same,Objective response,"[3]; randomized arms, post-Abi",24.4%
same,PSA50 response rate,"[9]; 56 days of BAT monotherapy, mCRPC",approximately 25%
same,PSA50 response rate,"[9]; 64 days of BAT monotherapy, mCRPC",approximately 25%
same,PSA/objective (biochemical and objective) response,"[9]; human, in vivo",20-30%
same,quality of life,"[9]; human, in vivo",improved quality of life
same,objective response rate,"[9]; mCRPC, monotherapy",approximately 30%
same,subjects experiencing an AE,[4]; BAT monotherapy phase,four
same,patients developing new bone metastases,[4]; completing 3 months of therapy,None of the 14 patients
same,AEs during BAT monotherapy phase,[4]; in vivo,rare and low grade
same,"new pain, skeletal events or urinary obstruction due to prostate cancer",[4]; in vivo,None of the 14 patients
same,patients with decline in PSA from baseline,[4]; in vivo,Seven of fourteen
same,"PSA decline/response and objective responses, patients",[4]; patients who completed three cycles,50%
same,median time to PSA progression,"[4]; seven patients with PSA decline, range 95 to 454 days",221 days
same,complete response (CR),[4]; ten RECIST-evaluable subjects,10%
same,partial responses (PRs),[4]; ten RECIST-evaluable subjects,40%
same,stable disease,"[4]; ten RECIST-evaluable subjects, median follow up 91 days",30%
same,progressive disease (PD),[4]; ten subjects with RECIST-evaluable soft tissue metastases,20%
same,MYC expression in tumor biopsies,[10],decreased
same,"QoL surveys (FACIT Fatigue, IIEF, SF-36 subscales)",[6]; BAT compared to baseline on ADT,significant improvement
same,"Adverse events to BAT, grade",[6]; in vivo,primarily Grade 1-2
same,patients with grade 3 hypertension attributed to BAT,[6]; in vivo,3 patients
same,PSA50 response to BAT,[6]; post-Abi (Cohort B),18%
same,PSA50 response to BAT,[6]; post-Enza (Cohort A),30%
